System: tau protein
Assay: Tau protein in vitro degradation assay (Western blot, Tau-13 antibody)
Type: cell-based, human
Conditions: SK-N-SH cells; 72 hours of incubation; tested at 300 nM, 100 nM, 33 nM and 11 nM; Western blot, Tau-13 antibody
Procedure, shortened: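 SK-N-SH cells, seeded ≥18 h beforehand, were incubated 72 h with tau PROTACs at 1000, 300 and 100 nM or at 300, 100, 33 and 11 nM. Lysates in protease-inhibitor buffer were resolved by SDS-PAGE; tau quantified by Western blot with Tau-13 antibody recognising all human tau forms.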

SMILES	Degradation activity* (highest amount of degradation observed at any dosage; tau protein remaining)	Degradation activity (tau protein remaining; highest amount of degradation observed at any dosage)
Cc1ncsc1-c1ccc([C@H](C)NC(=O)[C@@H]2C[C@@H](O)CN2C(=O)[C@@H](NC(=O)COCCOCCOCCOCCOc2ncc(-c3ccc4c(c3)[nH]c3ccncc34)cc2C(F)(F)F)C(C)(C)C)cc1 [Compound 119, (2S,4R)-1-((S)-17-((5-(5H-pyrido[4,3-b]indol-7-yl)-3-(trifluoromethyl)pyridin-2-yl)oxy)-2-(tert-butyl)-4-oxo-6,9,12,15-tetraoxa-3-azaheptadecanoyl)-4-hydroxy-N—((S)-1-(4-(4-methylthiazol-5-yl)phenyl)ethyl)pyrrolidine-2-carboxamide]	C (>80% tau protein remaining after 72 hours of incubation with the test compound)	
O=C1CCC(N2C(=O)c3ccc(OCCOCC#Cc4ccc(O[C@H]5C[C@H](Oc6ccc(-c7ccc8c(c7)[nH]c7ccncc78)cn6)C5)cn4)cc3C2=O)C(=O)N1 (some centres unmarked) [Compound 173, 5-(2-((3-(5-((1r,3r)-3-((5-(5H-pyrido[4,3-b]indol-7-yl)pyridin-2-yl)oxy)cyclobutoxy)pyridin-2-yl)prop-2-yn-1-yl)oxy)ethoxy)-2-(2,6-dioxopiperidin-3-yl)isoindoline-1,3-dione]		A (≤50% tau protein remaining after 72 hours of incubation with the test compound)
Cn1c2ccncc2c2ccc(-c3ccc(O[C@H]4C[C@H](CN5CC6(CC(OCCCCOc7ccc8c(c7)C(=O)N(C7CCC(=O)NC7=O)C8=O)C6)C5)C4)nc3)cc21 (some centres unmarked) [Compound 135, 2-(2,6-dioxopiperidin-3-yl)-5-(4-((2-(((1r,3r)-3-((5-(5-methyl-5H-pyrido[4,3-b]indol-7-yl)pyridin-2-yl)oxy)cyclobutyl)methyl)-2-azaspiro[3.3]heptan-6-yl)oxy)butoxy)isoindoline-1,3-dione]	B (≤80% and >50% tau protein remaining after 72 hours of incubation with the test compound)	
Cn1c2ccncc2c2ccc(-c3cnc(OCCOCCOCCOCCOCCOc4ccc5c(c4)C(=O)N(C4CCC(=O)NC4=O)C5=O)c(C(F)(F)F)c3)cc21 (centres unmarked) [Compound 67, 2-(2,6-dioxopiperidin-3-yl)-5-((14-((5-(5-methyl-5H-pyrido[4,3-b]indol-7-yl)-3-(trifluoromethyl)pyridin-2-yl)oxy)-3,6,9,12-tetraoxatetradecyl)oxy)isoindoline-1,3-dione]	A (≤50% tau protein remaining after 72 hours of incubation with the test compound)	
Cc1ncsc1-c1ccc(CNC(=O)[C@@H]2C[C@@H](O)CN2C(=O)[C@H](C(C)C)N2Cc3ccccc3C2=O)c(OCCOCCOCCOc2ccc(-c3ccc4c(c3)[nH]c3ccncc34)cn2)c1 [Compound 187, (2S,4R)—N-(2-(2-(2-(2-((5-(5H-pyrido[4,3-b]indol-7-yl)pyridin-2-yl)oxy)ethoxy)ethoxy)ethoxy)-4-(4-methylthiazol-5-yl)benzyl)-4-hydroxy-1-((S)-3-methyl-2-(1-oxoisoindolin-2-yl)butanoyl)pyrrolidine-2-carboxamide]		C (>80% tau protein remaining after 72 hours of incubation with the test compound)
Cn1c2ccncc2c2ccc(-c3ccc(O[C@H]4C[C@@H](OCCCOCCCOC5CN(c6ccc7c(c6)C(=O)N(C6CCC(=O)NC6=O)C7=O)C5)C4)nc3)cc21 (some centres unmarked) [Compound 170, 2-(2,6-dioxopiperidin-3-yl)-5-(3-(3-(3-((1 s,3 s)-3-((5-(5-methyl-5H-pyrido[4,3-b]indol-7-yl)pyridin-2-yl)oxy)cyclobutoxy)propoxy)propoxy)azetidin-1-yl)isoindoline-1,3-dione]		A (≤50% tau protein remaining after 72 hours of incubation with the test compound)
O=C1CCC(N2C(=O)c3cc(F)c(OCCOCCOCCOCCOCCOc4ccc(-c5ccc6c(c5)[nH]c5ccncc56)cn4)cc3C2=O)C(=O)N1 (centres unmarked) [Compound 81, 5-((14-((5-(5H-pyrido[4,3-b]indol-7-yl)pyridin-2-yl)oxy)-3,6,9,12-tetraoxatetradecyl)oxy)-2-(2,6-dioxopiperidin-3-yl)-6-fluoroisoindoline-1,3-dione]	A (≤50% tau protein remaining after 72 hours of incubation with the test compound)	
Cn1c2ccncc2c2ccc(-c3ccc(O[C@H]4C[C@H](OCCOCCOCCOCC5CN(c6ccc7c(c6)C(=O)N(C6CCC(=O)NC6=O)C7=O)C5)C4)nc3)cc21 (some centres unmarked) [Compound 206, 2-(2,6-dioxopiperidin-3-yl)-5-(3-((2-(2-(2-((1r,3r)-3-((5-(5-methyl-5H-pyrido[4,3-b]indol-7-yl)pyridin-2-yl)oxy)cyclobutoxy)ethoxy)ethoxy)ethoxy)methyl)azetidin-1-yl)isoindoline-1,3-dione]		B (≤80% and >50% tau protein remaining after 72 hours of incubation with the test compound)
Cn1c2ccncc2c2ccc(-c3ccc(O[C@H]4C[C@@H](Oc5ccc(C#CCCCCOc6ccc7c(c6)C(=O)N(C6CCC(=O)NC6=O)C7=O)cn5)C4)nc3)cc21 (some centres unmarked) [Compound 144, 2-(2,6-dioxopiperidin-3-yl)-5-(6-(6-((1s,3s)-3-(5-(5-methyl-5H-pyrido[4,3-b]indol-7-yl)pyridin-2-yloxy)cyclobutoxy)pyridin-3-yl)hex-5-ynyloxy)isoindoline-1,3-dione]	C (>80% tau protein remaining after 72 hours of incubation with the test compound)	
O=C1CCC(N2C(=O)c3ccc(OCCOCCOCCOCCOCCOc4ccc(-c5ccn6c(n5)nc5ccccc56)cn4)cc3C2=O)C(=O)N1 (centres unmarked) [Compound 207, 5-((14-((5-(benzo[4,5]imidazo[1,2-a]pyrimidin-2-yl)pyridin-2-yl)oxy)-3,6,9,12-tetraoxatetradecyl)oxy)-2-(2,6-dioxopiperidin-3-yl)isoindoline-1,3-dione]		B (≤80% and >50% tau protein remaining after 72 hours of incubation with the test compound)
Cn1c2ccncc2c2ccc(-c3ccc(O[C@H]4C[C@H](OC5CCN(c6cccc(C#CCOc7ccc8c(c7)C(=O)N(C7CCC(=O)NC7=O)C8=O)c6)CC5)C4)nc3)cc21 (some centres unmarked) [Compound 198, 2-(2,6-dioxopiperidin-3-yl)-5-((3-(3-(4-((1r,3r)-3-((5-(5-methyl-5H-pyrido[4,3-b]indol-7-yl)pyridin-2-yl)oxy)cyclobutoxy)piperidin-1-yl)phenyl)prop-2-yn-1-yl)oxy)isoindoline-1,3-dione]		A (≤50% tau protein remaining after 72 hours of incubation with the test compound)
Cn1c2ccncc2c2ccc(-c3cnc(O[C@H]4C[C@H](OCCCOCCCOC5CN(c6ccc7c(c6)C(=O)N(C6CCC(=O)NC6=O)C7=O)C5)C4)c(C(F)(F)F)c3)cc21 (some centres unmarked) [Compound 125, 2-(2,6-dioxopiperidin-3-yl)-5-(3-(3-(3-((1r,3r)-3-((5-(5-methyl-5H-pyrido[4,3-b]indol-7-yl)-3-(trifluoromethyl)pyridin-2-yl)oxy)cyclobutoxy)propoxy)propoxy)azetidin-1-yl)isoindoline-1,3-dione]	C (>80% tau protein remaining after 72 hours of incubation with the test compound)	
O=C1CCC(N2C(=O)c3ccc(N4CC(OCCCOCCCO[C@H]5C[C@H](Oc6ccc(-c7ccc8c(c7)[nH]c7ccncc78)cn6)C5)C4)cc3C2=O)C(=O)N1 (some centres unmarked) [Compound 182, 5-(3-(3-(3-((1r,3r)-3-((5-(5H-pyrido[4,3-b]indol-7-yl)pyridin-2-yl)oxy)cyclobutoxy)propoxy)propoxy)azetidin-1-yl)-2-(2,6-dioxopiperidin-3-yl)isoindoline-1,3-dione]		A (≤50% tau protein remaining after 72 hours of incubation with the test compound)
Cn1c2ccncc2c2ccc(-c3ccc(O[C@H]4C[C@H](C(=O)N5CC6(CC(OCCCCOc7ccc8c(c7)C(=O)N(C7CCC(=O)NC7=O)C8=O)C6)C5)C4)nc3)cc21 (some centres unmarked) [Compound 157, 2-(2,6-dioxopiperidin-3-yl)-5-(4-((2-((1r,3r)-3-((5-(5-methyl-5H-pyrido[4,3-b]indol-7-yl)pyridin-2-yl)oxy)cyclobutane-1-carbonyl)-2-azaspiro[3.3]heptan-6-yl)oxy)butoxy)isoindoline-1,3-dione]	C (>80% tau protein remaining after 72 hours of incubation with the test compound)	
Cn1c2ccncc2c2ccc(-c3ccc(O[C@H]4C[C@H](OCCCCOCCCCCOc5ccc6c(c5)C(=O)N(C5CCC(=O)NC5=O)C6=O)C4)nc3)cc21 (some centres unmarked) [Compound 114, 2-(2,6-dioxopiperidin-3-yl)-5-((5-(4-((1r,3r)-3-((5-(5-methyl-5H-pyrido[4,3-b]indol-7-yl)pyridin-2-yl)oxy)cyclobutoxy)butoxy)pentyl)oxy)isoindoline-1,3-dione]	C (>80% tau protein remaining after 72 hours of incubation with the test compound)	
Cn1c2ccncc2c2ccc(-c3ccc(O[C@H]4C[C@H](Oc5cnc(C#CCCCCOc6ccc7c(c6)C(=O)N(C6CCC(=O)NC6=O)C7=O)nc5)C4)nc3)cc21 (some centres unmarked) [Compound 141, 2-(2,6-dioxopiperidin-3-yl)-5-((6-(5-((1r,3r)-3-((5-(5-methyl-5H-pyrido[4,3-b]indol-7-yl)pyridin-2-yl)oxy)cyclobutoxy)pyrimidin-2-yl)hex-5-yn-1-yl)oxy)isoindoline-1,3-dione]	C (>80% tau protein remaining after 72 hours of incubation with the test compound)	

Same assay, conditions: SK-N-SH cells; 72 hours of incubation; tested at 1000 nM, 300 nM and 100 nM

SMILES	Activity* (highest amount of degradation observed at any dosage, as tau protein remaining)
O=C1CCC(N2C(=O)c3cccc(NCCOCCOCCOCCOCCOc4ccc(-c5ccc6c(c5)[nH]c5ccncc56)cn4)c3C2=O)C(=O)N1 (centres unmarked) [Compound 4, 4-((14-((5-(5H-pyrido[4,3-b]indol-7-yl)pyridin-2-yl)oxy)-3,6,9,12-tetraoxatetradecyl)amino)-2-(2,6-dioxopiperidin-3-yl)isoindoline-1,3-dione]	A (≤50% tau protein remaining after 72 hours of incubation with the test compound)

From US11458123B2 (Arvinas, Inc., priority 2016, dated 2022)
